Experimental data: ChEMBL document CHEMBL1759872, “Small-molecule probe using dual signals to monitor leucine aminopeptidase activity” (Bioorg Med Chem Lett, 2011); call rule not given here

Tests used:
Sus scrofa = species on record: Sus scrofa; assay: Activity at pig kidney LAP after 40 mins by Michaelis-Menten equation; type: tissue-based
HCT-116 [1] = assay: Drug uptake in human HCT116 cells at 20 uM after 20 mins by DAPI staining based microscopic analysis; type: ADME, cell-based; conditions: hct-116, 20 min
HCT-116 [2] = assay: Drug uptake in human HCT116 cells at 20 uM after 20 mins by DAPI staining based microscopic analysis in presence of bestatin; type: ADME, cell-based; conditions: hct-116, 20 min
[3] = Competitive inhibition of pig kidney LAP activity using l-Leucine-p-nitroanilide as substrate after 10 mins by Michaelis-Menten equation
[4] = Competitive inhibition of pig kidney LAP activity using N-(6-Methoxypyridine-3-yl), (S)-2-amino-4-methylpentanamide as substrate after 10 mins by Michaelis-Menten equation
[5] = Competitive inhibition of pig kidney LAP activity using DCDHF-Leu as substrate after 10 mins by Michaelis-Menten equation

Km (Sus scrofa) | SMILES | Vmax (Sus scrofa) | other results
3000 µM | CC(C)C[C@H](N)C(=O)Nc1ccc([N+](=O)[O-])cc1 | 3.9 µmol/min/mg | 
8.87 µM | CC(C)C[C@H](N)C(=O)Nc1ccc(/C=C/C2=C(C#N)C(=C(C#N)C#N)OC2(C)C)cc1 | 6.64 µmol/min/mg | fold change (FC) (HCT-116 [1]): 6; Drug uptake (HCT-116 [2]): Not Active
 | CC(C)C[C@H](NC(=O)[C@@H](O)[C@H](N)Cc1ccccc1)C(=O)O [UBENIMEX] |  | IC50 [3]: 25 µM; IC50 [4]: 7 µM; IC50 [5]: 4.41 µM
 | CC1(C)OC(=C(C#N)C#N)C(C#N)=C1/C=C/c1ccc(N)cc1 |  | Drug uptake (HCT-116 [1]): Active
65 µM | COc1ccc(NC(=O)[C@@H](N)CC(C)C)cn1 | 7.7 µmol/min/mg | 
